# Measurements taken from US20250161250A1, “COMPOSITIONS AND METHODS FOR TREATMENT OF IDIOPATHIC PULMONARY FIBROSIS” (NUFORMIX TECHNOLOGIES LIMITED, priority 2022, published 2025).
# “Also recorded” adds a separate entry of the source.
# How the values were obtained:
# Format in all cases: cell-based
# IL-8 = IL-8 levels in human IPF-PCLS culture supernatants (MSD multiplex ELISA); settings: single treatment, any concentration tested
# Method: (§1) PCLS preparation and culture: PCLS were prepared from a single explanted human IPF lung and rested for 48 hrs to allow the post-slicing stress period to elapse before experiments began. PCLS were subsequently incubated with vehicle (0.1% DMSO), tranilast as a 1:1 l-lysine tranilast salt at 2 escalating concentrations (31.25 μM, 125 μM), pirfenidone at 3 escalating concentrations (0.25 mM, 1 mM, 2.5 mM) or nintedanib at 3 escalating concentrations (0.25 μM, 1 μM, 2.5 μM) in the presence or absence of Tranilast at 2 escalating concentrations (31.25 μM, 125 μM) for a further 96 hrs. PCLS culture media and all compounds were refreshed at 24 hrs intervals. All PCLS were harvested at 144 hrs.
# (§2) Experimental groups: Twenty-one (21) different groups with n=6 human PCLS (total n=126 per lung) were investigated as shown in Table 4 below. PCLS were prepared from n=1 individual human IPF lungs.
# (§3) PCLS Treatments and Media Collections: PCLS were incubated for a 48 hr rest period. […]
# (§4) PCLS harvest: Cell culture supernatant (n=6 per group) were collected every 24 hrs and snap frozen for quantification of inflammatory cytokines and soluble ECM proteins. At harvest, PCLS (n=6 per group) and cell culture media (n=6 per group) were snap frozen for quantification of inflammatory cytokines and soluble ECM proteins.
# (§5) Soluble outputs analysis: Anti-inflammatory potential was assessed by determining the levels of the inflammation markers MCP-1, IL-6, GMCSF, IL-8, and IL-1β in the tissue culture supernatants experiment (n=213 samples (n=630 samples; n=126 at 48 hrs, 72 hrs, 96 hrs, 120 hrs and 144 hrs) were quantified using a MSD multiplex ELISA (MesoScaleDiscovery). Anti-fibrotic potential was assessed by determining the levels of the fibrosis markers Collagen-1a1, TIMP1, and Fibronectin in the tissue culture supernatants (n=630 samples as above) were quantified using a single-plex ELISA (R&D). Summary data for all inflammatory markers and fibrotic markers in PCLS treated with pirfenidone (FIGS. 1a and 1b) or nintedanib (FIGS. 2a and 2b) in the presence or absence of Tranilast at 144 hrs only. […]
# MCP-1 = MCP-1 levels in human IPF-PCLS culture supernatants (MSD multiplex ELISA); settings: for MCP-1: after 4-day dosing; for MCP-1 secretion: any concentration tested, human IPF PCLS supernatant
# Method: as §1, §2
# (§6) PCLS Treatments and Media Collections: PCLS were incubated for a 48 hr rest period. Post-rest, PCLS were incubated for a further 96 hrs in the presence or absence of inhibitors as outlined above. PCLS culture media, including all compounds, were refreshed and harvested at 24 hrs intervals from 48 hrs. All PCLS were harvested at 144 hrs.
# as §4
# (§7) Soluble outputs analysis: Anti-inflammatory potential was assessed by determining the levels of the inflammation markers MCP-1, IL-6, GMCSF, IL-8, and IL-1β in the tissue culture supernatants experiment (n=213 samples (n=630 samples; n=126 at 48 hrs, 72 hrs, 96 hrs, 120 hrs and 144 hrs) were quantified using a MSD multiplex ELISA (MesoScaleDiscovery). Anti-fibrotic potential was assessed by determining the levels of the fibrosis markers Collagen-1a1, TIMP1, and Fibronectin in the tissue culture supernatants (n=630 samples as above) were quantified using a single-plex ELISA (R&D). Summary data for all inflammatory markers and fibrotic markers in PCLS treated with pirfenidone (FIGS. 1a and 1b) or nintedanib (FIGS. 2a and 2b) in the presence or absence of Tranilast at 144 hrs only. Graphs are represented by n=6 tissue culture media per condition, per time point. Data is presented as mean±SEM with individual values per tissue culture media.
# Collagen-1a1 = assay: Collagen 1a1 levels in human IPF-PCLS culture supernatants (single-plex ELISA); settings: for Col1A1: after 4-day dosing; for Collagen 1a1 secretion: single treatment
# Method: as §1, §2, §6, §4, §7
# Fibronectin = Fibronectin levels in human IPF-PCLS culture supernatants (single-plex ELISA); settings: single treatment, high concentration, at 144 hrs
# Method: as §1, §2, §3
# PCLS harvest: Cell culture supernatant (n=6 per group) were collected every 24 hrs and snap frozen for quantification of inflammatory cytokines and soluble ECM proteins. At harvest, PCLS (n=6 per group) and cell culture media (n=6 per group) were snap frozen for quantification of inflammatory cytokines and soluble ECM proteins. […]
# IL-6 = IL-6 levels in human IPF-PCLS culture supernatants (MSD multiplex ELISA); settings: single treatment, any concentration tested
# Method: as §1, §2, §3, §4, §5
# [1] = alone (suboptimal / ineffective concentration)
# [2] = suboptimal concentrations alone
Structure (SMILES),IL-8 secretion (IL-8),MCP-1 (MCP-1; [1]),MCP-1 (MCP-1; high concentration alone),MCP-1 secretion (MCP-1; single treatment),Col1A1 (Collagen-1a1; high concentration alone),Col1A1 (Collagen-1a1; [2]),Collagen 1a1 secretion (Collagen-1a1; any concentration tested),Fibronectin secretion (Fibronectin),IL-6 secretion (IL-6),"MCP-1 levels (MCP-1; single treatment, high concentration)",Collagen 1a1 secretion (Collagen-1a1; high concentration)
Cc1ccc(=O)n(-c2ccccc2)c1 [pirfenidone],concentration dependently attenuated,minimal effect,strongly inhibited,concentration dependently attenuated,strongly inhibited,minimal effect,concentration dependently attenuated,attenuation,Little to no effect,–,–
COC(=O)c1ccc2c(c1)NC(=O)/C2=C(\Nc1ccc(N(C)C(=O)CN2CCN(C)CC2)cc1)c1ccccc1 [nintedanib],little to no effect,no effect; also recorded: neither nintedanib (Nin) nor tranilast (TL) alone effected,–,little to no effect,–,–,little to no effect,–,Little to no effect,–,–
"COc1ccc(/C=C/C(=O)Nc2ccccc2C(=O)O)cc1OC [tranilast, 2-[[3-(3,4-dimethoxyphenyl)-1-oxo-2-propenyl]amino]benzoic acid]",little to no effect,minimal effect; also recorded: neither nintedanib (Nin) nor tranilast (TL) alone effected,–,–,–,minimal effect,–,–,Little to no effect,marginally reduced,marginally reduced
